Experimental data reported in patent US11001570B2, “6-amino-quinolinone compounds and derivatives as BCL6 inhibitors” (Boehringer Ingelheim International GmbH, priority 2016, dated 2021).
pIC50: −log10 of the molar value.

Molecular target: T1, BCL6::BCOR (Homo sapiens, UniProt P41182, C67R/C84N/C8Q)
T1 construct: BCL6 (amino acids 5 to 129, with the following changes to the natural protein); made in house; host or cells: E. coli
Assay: BCL6::BCOR ULight TR-FRET assay
Assay type: binding
Outline: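 Biotin-Avi BCL6 (aa 5–129, C8Q/C67R/C84N; E. coli), 1 nM, preincubated 30 min RT with compound (11-point fivefold series, top 100 μM) in HEPES pH 7.3 buffer; then 100 nM ULight-BCOR peptide plus 0.75 nM streptavidin-Eu added, 240 min RT. TR-FRET read, normalized to DMSO controls with/without BCL6.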

Row | pIC50 | Structure (SMILES)
1 | 8.05 | Cn1cnc2c1CCN(c1ncc(Cl)c(Nc3ccc4c(c3)cc(OCC(=O)O)c(=O)n4C)n1)C2 [Compound I-115]
2 | 8.00 | Cn1c(=O)c(OCC(=O)O)cc2cc(Nc3nc(N4CCc5[nH]nnc5C4)ncc3Cl)ccc21 [Compound I-116]
3 | 7.96 | C[C@H]1CN(c2ncc(Cl)c(Nc3ccc4c(c3)cc(OCC(=O)O)c(=O)n4C)n2)CCO1 [Compound I-117]
4 | 7.80 | Cn1c(=O)c(OCC(=O)O)cc2cc(Nc3nc(N4CCCC(F)(F)CC4)ncc3Cl)ccc21 [Compound I-118]
5 | 7.89 | CC1CCCN(c2ncc(Cl)c(Nc3ccc4c(c3)cc(OCC(=O)O)c(=O)n4C)n2)C1 (stereo not shown) [Compound I-119]
6 | 7.96 | Cn1c(=O)c(OCC(=O)O)cc2cc(Nc3nc(N4CCC(N5CCOCC5)C4)ncc3Cl)ccc21 (stereo not shown) [Compound I-120]
7 | 8.00 | CC1CCN(c2ncc(Cl)c(Nc3ccc4c(c3)cc(OCC(=O)O)c(=O)n4C)n2)CC1 [Compound I-121]
8 | 8.22 | CCC1CN(c2ncc(Cl)c(Nc3ccc4c(c3)cc(OCC(=O)NC)c(=O)n4C)n2)CCN1CC(F)F (stereo not shown) [Compound I-122]
9 | 8.15 | CNC(=O)COc1cc2cc(Nc3nc(N4CCCC(CCCCN5CCCC5)C4)ncc3Cl)ccc2n(C)c1=O (stereo not shown) [Compound I-123]
10 | 8.00 | CNC(=O)COc1cc2cc(Nc3nc(N4CCC5CN(Cc6ccccc6)CC54)ncc3Cl)ccc2n(C)c1=O (stereo not shown) [Compound I-125]
11 | 8.15 | CCN(CC)CCCCC1CCCN(c2ncc(Cl)c(Nc3ccc4c(c3)cc(OCC(=O)NC)c(=O)n4C)n2)C1 (stereo not shown) [Compound I-126]
12 | 8.05 | CNC(=O)COc1cc2cc(Nc3nc(N4CCCC(CN5CCCCC5)C4)ncc3Cl)ccc2n(C)c1=O (stereo not shown) [Compound I-127]
13 | 8.15 | CCCN(CCC)CCC1CCN(c2ncc(Cl)c(Nc3ccc4c(c3)cc(OCC(=O)NC)c(=O)n4C)n2)CC1 [Compound I-128]
14 | 8.30 | C[C@@H]1C[C@H](C)CN(c2ncc(Cl)c(Nc3ccc4c(c3)cc(OCC(=O)O)c(=O)n4C)n2)C1 [Compound I-131, 2-{[6-({5-chloro-2-[cis-3,5-dimethylpiperidin-1-yl]pyrimidin-4-yl}amino)-1-methyl-2-oxo-1,2-dihydroquinolin-3-yl]oxy}-acetic acid]
15 | 8.30 | Cn1c(=O)c(OCC(=O)O)cc2cc(Nc3nc(N4CCC(F)CC4)ncc3Cl)ccc21 [Compound I-132, 2-[(6-{[5-chloro-2-(4-fluoropiperidin-1-yl)pyrimidin-4-yl]amino}-1-methyl-2-oxo-1,2-dihydro-quinolin-3-yl)oxy]acetic acid]
16 | 7.54 | C[C@@H]1C[C@H](C)CN(c2ncc(Cl)c(Nc3ccc4c(c3)cc(OCC(=O)N(C)C)c(=O)n4C)n2)C1 [Compound I-133, 2-{[6-({5-chloro-2-[cis-3,5-dimethyl-piperidin-1-yl]pyrimidin-4-yl}amino)-1-methyl-2-oxo-1,2-dihydroquinolin-3-yl]oxy}-N,N-dimethylacetamide]
17 | 7.11 | COCCN(C)C(=O)COc1cc2cc(Nc3nc(N4C[C@H](C)C[C@H](C)C4)ncc3Cl)ccc2n(C)c1=O [Compound I-134]
18 | 7.80 | C[C@@H]1C[C@H](C)CN(c2ncc(Cl)c(Nc3ccc4c(c3)cc(OCC(=O)NCCO)c(=O)n4C)n2)C1 [Compound I-135]
19 | 6.57 | C[C@@H]1C[C@H](C)CN(c2ncc(Cl)c(Nc3ccc4c(c3)cc(OCC(=O)NCC(O)C(F)(F)F)c(=O)n4C)n2)C1 (stereo partly shown) [Compound I-136]
20 | 7.68 | CCNC(=O)COc1cc2cc(Nc3nc(N4C[C@H](C)C[C@H](C)C4)ncc3Cl)ccc2n(C)c1=O [Compound I-137]
21 | 6.28 | C[C@@H]1C[C@H](C)CN(c2ncc(Cl)c(Nc3ccc4c(c3)cc(OCC(=O)NCCN(C)C)c(=O)n4C)n2)C1 [Compound I-138]
22 | 8.22 | C[C@@H]1C[C@H](C)CN(c2ncc(Cl)c(Nc3ccc4c(c3)cc(OCC(=O)OCCN(C)C)c(=O)n4C)n2)C1 [Compound I-139, 2-(dimethylamino)ethyl 2-{[6-({5-chloro-2-[cis-3,5-dimethylpiperidin-1-yl]pyrimidin-4-yl}amino)-1-methyl-2-oxo-1,2-dihydroquinolin-3-yl]oxy}acetate]
23 | 8.30 | CC(CN(C)C)OC(=O)COc1cc2cc(Nc3nc(N4C[C@H](C)C[C@H](C)C4)ncc3Cl)ccc2n(C)c1=O (stereo partly shown) [Compound I-140]
24 | 8.05 | C[C@@H]1C[C@H](C)CN(c2ncc(Cl)c(Nc3ccc4c(c3)cc(OCC(=O)OCCCN(C)C)c(=O)n4C)n2)C1 [Compound I-141]

Row | pIC50 | Structure (SMILES)
25 | 8.30 | C[C@@H]1C[C@H](C)CN(c2ncc(Cl)c(Nc3ccc4c(c3)cc(OCC(=O)OCCN3CCOCC3)c(=O)n4C)n2)C1 [Compound I-142]
26 | 8.22 | CNC(=O)COc1cc2cc(Nc3nc(N4CCC(C(=O)N(C)CCOCCN)CC4)ncc3Cl)ccc2n(C)c1=O [Compound I-143]
27 | 7.66 | CNC(=O)COc1cc2cc(Nc3nc(N4CCC(C(=O)NCCOCCN)CC4)ncc3Cl)ccc2n(C)c1=O [Compound I-144]
28 | 8.22 | CNC(=O)COc1cc2cc(Nc3nc(N4CCC(C(=O)NCCCCCN)CC4)ncc3Cl)ccc2n(C)c1=O [Compound I-145]
29 | 8.22 | CNC(=O)COc1cc2cc(Nc3nc(N4CCC(C(=O)NCCCCCCN)CC4)ncc3Cl)ccc2n(C)c1=O [Compound I-146]
30 | 8.30 | CNC(=O)COc1cc2cc(Nc3nc(N4CCC(C(=O)NCCOCCOCCN)CC4)ncc3Cl)ccc2n(C)c1=O [Compound I-147]
31 | 7.92 | CNC(=O)COc1cc2cc(Nc3nc(-n4nc(C)cc4C)ncc3Cl)ccc2n(C)c1=O [Compound I-149, 2-[(6-{[5-chloro-2-(3,5-dimethyl-1H-pyrazol-1-yl)pyrimidin-4-yl]amino}-1-methyl-2-oxo-1,2-dihydroquinolin-3-yl)oxy]-N-methylacetamide]
32 | 7.07 | C[C@@H]1C[C@H](C)CN(c2ncc(Cl)c(Nc3ccc4c(c3)cc(SCC(=O)O)c(=O)n4C)n2)C1 [Compound I-150, 2-{[6-({5-chloro-2-[cis-3,5-dimethylpiperidin-1-yl]pyrimidin-4-yl}amino)-1-methyl-2-oxo-1,2-dihydroquinolin-3-yl]sulfanyl}acetic acid]
33 | 8.22 | CNC(=O)COc1cc2cc(Nc3nc(N4CCC(C(=O)N(C)C)CC4)ncc3Cl)ccc2n(CCCO)c1=O [Compound I-151, 1-(5-chloro-4-{[1-(3-hydroxypropyl)-3-[(methyl-carbamoyl)methoxy]-2-oxo-1,2-dihydroquinolin-6-yl]amino}pyrimidin-2-yl)-N,N-dimethyl-piperidine-4-carboxamide]
34 | 8.30 | CN(C)C(=O)C1CCN(c2ncc(Cl)c(Nc3ccc4c(c3)cc(OCC(=O)O)c(=O)n4C)n2)CC1 [Compound I-152, 2-{[6-({5-chloro-2-[4-(dimethylcarbamoyl)piperidin-1-yl]pyrimidin-4-yl}amino)-1-methyl-2-oxo-1,2-dihydroquinolin-3-yl]oxy}acetic acid]
35 | 7.96 | Cc1cc(C)n(-c2ncc(Cl)c(Nc3ccc4c(c3)cc(OCC(=O)O)c(=O)n4C)n2)n1 [Compound I-153, 2-[(6-{[5-chloro-2-(3,5-dimethyl-1H-pyrazol-1-yl)pyrimidin-4-yl]amino}-1-methyl-2-oxo-1,2-dihydroquinolin-3-yl)oxy]acetic acid]
36 | 8.05 | CNC(=O)COc1cc2cc(Nc3nc(N4C[C@H](C)C[C@H](C)C4)ncc3Cl)cnc2n(C)c1=O [Compound I-155]
37 | 7.72 | CNC(=O)COc1cc2cc(Nc3nc(N4CCC(C(=O)N(C)C)CC4)ncc3Cl)c(F)cc2n(C)c1=O [Compound I-156]
38 | 8.30 | CNC(=O)COc1cc2cc(Nc3nc(N4CCC(C(=O)N(C)C)CC4)ncc3Cl)ccc2n(C)c1=O [Compound I-157]
39 | 8.22 | CNC(=O)COc1cc2cc(Nc3nc(N4CCC(C(=O)N(C)C)CC4)ncc3Cl)ccc2n(C(C)C)c1=O [Compound I-158]
40 | 7.07 | CNC(=O)COc1cc2cc(Nc3nc(N4C[C@H](C)C[C@H](C)C4)ncc3Cl)ccc2n(CCN(C)C)c1=O [Compound I-159]
41 | 8.15 | CCn1c(=O)c(OCC(=O)NC)cc2cc(Nc3nc(-n4nc(C)cc4C)ncc3Cl)ccc21 [Compound I-160]
42 | 8.30 | CCn1c(=O)c(OCC(=O)NC)cc2cc(Nc3nc(N4CCC(C(=O)N(C)C)CC4)ncc3Cl)ccc21 [Compound I-161]
43 | 7.01 | CNC(=O)[C@@H](C)Oc1cc2cc(Nc3nc(N4CCC(C(=O)N(C)C)CC4)ncc3Cl)ccc2n(C)c1=O [Compound I-162]
44 | 7.22 | CNC(=O)COc1cc2cc(Nc3nc(N4CCC(C(=O)N(C)C)CC4)ncc3Cl)c(OC)cc2n(C)c1=O [Compound I-163]
45 | 6.55 | CNC(=O)COc1cc2cc(Nc3nc(N4CCC(C(=O)N(C)C)CC4)ncc3Cl)c(Cl)cc2n(C)c1=O [Compound I-164]
46 | 7.66 | C[C@@H]1C[C@H](C)CN(c2ncc(Cl)c(Nc3ccc4c(c3)cc(/C=C/C(=O)O)c(=O)n4C)n2)C1 [Compound I-165]
47 | 7.80 | CNC(=O)COc1cc2cc(Nc3nc(-n4nc(C(=O)N5CCN(C)CC5)cc4C)ncc3Cl)ccc2n(C)c1=O [Compound I-166, 2-{[6-({5-chloro-2-[5-methyl-3-(4-methylpiperazine-1-carbonyl)-1H-pyrazol-1-yl]pyrimidin-4-yl}amino)-1-methyl-2-oxo-1,2-dihydroquinolin-3-yl]oxy}-N-methylacetamide]
48 | 8.40 | CNC(=O)COc1cc2cc(Nc3nc(N4CCC[C@@H](C(=O)O)C4)ncc3Cl)ccc2n(C)c1=O [Compound I-167, (3R)-1-[5-chloro-4-({1-methyl-3-[(methylcarbamoyl)methoxy]-2-oxo-1,2-dihydroquinolin-6-yl}-amino)pyrimidin-2-yl]piperidine-3-carboxylic acid]

Row | Structure (SMILES) | pIC50
49 | CNC(=O)COc1cc2cc(Nc3nc(N4CCC(C(=O)N(C)C)CC4)ncc3Cl)cc(OC)c2n(C)c1=O [Compound I-148, 1-[5-chloro-4-({8-methoxy-1-methyl-3-[(methylcarbamoyl)methoxy]-2-oxo-1,2-dihydroquinolin-6-yl}amino)pyrimidin-2-yl]-N,N-dimethylpiperidine-4-carboxamide] | 8.52
